Assay results: US20220242879A1, “FUSED HETEROCYCLE DERIVATIVES” (Janssen Sciences Ireland Unlimited Company, priority 2019, published 2022)

How the values were obtained:
HBV = test: Anti-HBV activity, HepG2.117 cell line, intracellular HBV DNA by real-time PCR; assay type: cell-based, Hepatitis B virus; details: Hepatitis B virus, 72 h; mean value; HepG2.117 cells, 3 days of treatment, intracellular HBV DNA; read-out: HBV-AVE-HepG2.117 EC50
Protocol: The anti HBV activity was measured using the HepG2.117 cell line, a stable, inducibly HBV producing cell line, which replicates HBV in the absence of doxicycline (Tet-off system). The HepG2 cell line is available from ATCC® under number HB-8065. Transfection of the HepG2 cell line can be as described in Sun and Nassal 2006 Journal of Hepatology 45 (2006) 636-645 “Stable HepG2- and Huh7-based human hepatoma cell lines for efficient regulated expression of infectious hepatitis B virus”.
For the antiviral assay, HBV replication was induced, followed by a treatment with serially diluted compound in 96-well plates. After 3 days of treatment, the antiviral activity was determined by, quantification of intracellular HBV DNA using real-time PCR and an HBV specific primer set and probe.

[1] = Cytotoxicity, ATPlite Luminescence Assay; assay type: cell-based, human; details: human, HepG2.117 cells; mean value; cells incubated for 3 days, viability by ATPlite; read-out: TOX-HepC2.117 CC50
Protocol: Cytotoxicity of the compounds was tested using HepG2 or HepG2.117 cells, incubated for 3 days in the presence of compounds. The viability of the cells was assessed using the PERKIN ELMER ATPlite Luminescence Assay System.”

SMILES | EC50 (HBV) [nM] | CC50 at 3 days [1] [nM]
Cc1onc2c1CCCn1nc3c(c1-2)CN(C(=O)c1ccc(Cl)c(Cl)c1)[C@H](C)C3 [Compound 15, (3,4-dichlorophenyl)[(10R)-3,10-dimethyl-5,6,9,10-tetrahydro-4H-[1,2]oxazolo-[3,4-c]pyrido[4′,3′:3,4]pyrazolo[1,5-a]azepin-11(12H)-yl]methanone] | 934 | > 43500
O=C(c1ccc(Cl)c(Cl)c1)N1CCc2nn3c(c2C1)-c1nc[nH]c1CCC3 [Compound 44, (3,4-Dichlorophenyl)(4,5,6,9,10,12-hexahydroimidazo[4,5-c]pyrido[4′,3′:3,4]pyrazolo[1,5-a]azepin-11(3H)-yl)methanone] | 574 | > 50000
Cc1onc2c1CCn1nc3c(c1-2)CN(C(=O)c1ccc(Cl)c(Cl)c1)CC3 [Compound 2] | 921 | 41900
C=C1Cc2c(noc2N(C)C)-c2c3c(nn2C1)CCN(C(=O)c1ccc(Cl)c(Cl)c1)C3 [Compound 26, (3,4-Dichlorophenyl)[3-(dimethylamino)-5-methylidene-5,6,9,10-tetrahydro-4H-[1,2]oxazolo-[3,4-c]pyrido[4′,3′:3,4]pyrazolo[1,5-a]azepin-11(12H)-yl]methanone] | 1150 | > 50000
CNC(=O)[C@H]1Cc2conc2-c2c3c(nn2C1)CCN(C(=O)c1ccc(Cl)c(Cl)c1)C3 (single isomer, unassigned) [Compound 31, (5*S)-11-(3,4-Dichlorobenzoyl)-N-methyl-5,6,9,10,11,12-hexahydro-4H-[1,2]oxazolo[3,4-c]pyrido[4′,3′:3,4]pyrazolo[1,5-a]azepine-5-carboxamide] | 47 | > 50000
Cc1onc2c1CCCn1nc3c(c1-2)CN(C(=O)c1ccc(Cl)c(Cl)c1)CC3 [Compound 12, (3,4-Dichlorophenyl)(3-methyl-5,6,9,10-tetrahydro-4H-[1,2]oxazolo[3,4-c]pyrido[4′,3′:3,4]-pyrazolo[1,5-a]azepin-11(12H)-yl)methanone] | 835 | 31100
O=C(NCC(F)(F)F)C1Cc2conc2-c2c3c(nn2C1)CCN(C(=O)c1ccc(Cl)c(Cl)c1)C3 (stereo not drawn) [Compound 35, 11-(3,4-Dichlorobenzoyl)-N-(2,2,2-trifluoroethyl)-5,6,9,10,11,12-hexahydro-4H-[1,2]oxazolo-[3,4-c]pyrido[4′,3′:3,4]pyrazolo[1,5-a]azepine-5-carboxamide] | 395 | > 50000
COC1Cc2conc2-c2c3c(nn2C1)CCN(C(=O)c1ccc(Cl)c(Cl)c1)C3 (stereo not drawn) [Compound 20, (3,4-Dichlorophenyl)(5-methoxy-5,6,9,10-tetrahydro-4H-isoxazolo[3,4-c]pyrido[4′,3′:3,4]-pyrazolo[1,5-a]azepin-11(12H)-yl)methanone] | 300 | > 50000
O=C(c1ccc(Cl)c(Cl)c1)N1CCc2nn3c(c2C1)-c1oncc1CCC3 [Compound 39, (3,4-Dichlorophenyl)(4,5,6,9,10,12-hexahydro-11H-[1,2]oxazolo[5,4-c]pyrido[4′,3′:3,4]-pyrazolo[1,5-a]azepin-11-yl)methanone] | 1340 | 43600
CNC(=O)[C@@H]1Cc2conc2-c2c3c(nn2C1)CCN(C(=O)c1ccc(Cl)c(Cl)c1)[C@@H]3C (single isomer, unassigned) [Compound 49] | 4640 | > 50000
Cn1cnc2c1CCCn1nc3c(c1-2)CN(C(=O)c1ccc(Cl)c(Cl)c1)CC3 [Compound 45, (3,4-Dichlorophenyl)(3-methyl-4,5,6,9,10,12-hexahydroimidazo[4,5-c]pyrido[4′,3′:3,4]pyrazolo-[1,5-a]azepin-11(3H)-yl)methanone] | 4970 | > 50000
O=C(c1ccc(Cl)c(Cl)c1)N1CCc2nn3c(c2C1)-c1nocc1CC3 [Compound 1, (3,4-Dichlorophenyl)(4,5,8,9-tetrahydro[1,2]oxazolo[3,4-c]pyrazolo[1,5-a:4,3-c′]dipyridin-10(11H)-yl)methanone] | 1130 | > 50000
C[C@@H]1Cc2nn3c(c2CN1C(=O)c1ccc(Cl)c(Cl)c1)-c1nocc1CC3 [Compound 5, (3,4-Dichlorophenyl)[(9R)-9-methyl-4,5,8,9-tetrahydro[1,2]oxazolo[3,4-c]-pyrazolo[1,5-a:4,3-c′]dipyridin-10(11H)-yl]methanone] | 279 | > 50000
Cc1nc2c(s1)CCn1nc3c(c1-2)CN(C(=O)c1ccc(Cl)c(Cl)c1)CC3 [Compound 10, (3,4-Dichlorophenyl)(2-methyl-4,8,9,11-tetrahydro[1,3]thiazolo[4,5-c]pyrazolo[1,5-a:4,3-c′]-dipyridin-10(5H)-yl)methanone] | 8060 | > 10000
O=C(c1ccc(Cl)c(Cl)c1)N1CCc2nn3c(c2C1)-c1ncoc1CCC3 [Compound 40, (3,4-Dichlorophenyl)(4,5,6,9,10,12-hexahydro-11H-[1,3]oxazolo[4,5-c]pyrido-[4′,3′:3,4]pyrazolo[1,5-a]azepin-11-yl)methanone] | 499 | > 50000
Cn1cc2c(n1)-c1c3c(nn1CC2)CCN(C(=O)c1ccc(Cl)c(Cl)c1)C3 [Compound 8, (3,4-Dichlorophenyl)(2-methyl-2,4,5,8,9,11-hexahydro-10H-pyrazolo[3,4-c]pyrazolo-[1,5-a:4,3-c]dipyridin-10-yl)methanone] | 2550 | > 50000
O=C(c1ccc(Cl)c(Cl)c1)N1CCc2nn3c(c2C1)-c1nocc1CC(C(=O)N1CCOCC1)C3 (stereo not drawn) [Compound 38, [1-(3,4-Dichlorobenzoyl)-5,6,9,10,11,12-hexahydro-4H-[1,2]oxazolo[3,4-c]pyrido[4′,3′:3,4]-pyrazolo[1,5-a]azepin-5-yl](morpholin-4-yl)methanone] | 1440 | > 50000
Cn1cc2c(n1)-c1c3c(nn1CCC2)CCN(C(=O)c1ccc(Cl)c(Cl)c1)C3 [Compound 42, (3,4-Dichlorophenyl)(2-methyl-2,5,6,9,10,12-hexahydropyrazolo[3,4-c]pyrido[4′,3′:3,4]-pyrazolo[1,5-a]azepin-11(4H)-yl)methanone] | > 48800 | > 50000
C=C1Cc2c(noc2N)-c2c3c(nn2C1)CCN(C(=O)c1ccc(Cl)c(Cl)c1)C3 [Compound 23, (3-Amino-5-methylidene-5,6,9,10-tetrahydro-4H-[1,2]oxazolo[3,4-c]pyrido[4′,3′:3,4]pyrazolo-[1,5-a]azepin-11(12H)-yl)(3,4-dichlorophenyl)methanone] | 172 | 21200
O=C(c1ccc(Cl)c(Cl)c1)N1CCc2nn3c(c2C1)-c1nocc1CC(O)(CO)C3 (stereo not drawn) [Compound 18, (3,4-Dichlorophenyl)[5-hydroxy-5-(hydroxymethyl)-5,6,9,10-tetrahydro-4H-[1,2]oxazolo-[3,4-c]pyrido[4′,3′:3,4]pyrazolo[1,5-a]azepin-11(12H)-yl]methanone] | 1050 | > 50000
O=C(O)C1Cc2conc2-c2c3c(nn2C1)CCN(C(=O)c1ccc(Cl)c(Cl)c1)C3 (stereo not drawn) [Compound 29, 11-(3,4-Dichlorobenzoyl)-5,6,9,10,11,12-hexahydro-4H-[1,2]oxazolo[3,4-c]pyrido[4′,3′:3,4]-pyrazolo[1,5-a]azepine-5-carboxylic Acid] | 15500 | > 50000
CNC(=O)C1(O)Cc2conc2-c2c3c(nn2C1)CCN(C(=O)c1ccc(Cl)c(Cl)c1)C3 (stereo not drawn) [Compound 22, 11-(3,4-Dichlorobenzoyl)-S-hydroxy-N-methyl-5,6,9,10,11,12-hexahydro-4H-[1,2]oxazolo-[3,4-c]pyrido[4′,3′:3,4]pyrazolo[1,5-a]azepine-5-carboxamide] | 130 | > 50000
CCc1onc2c1CCn1nc3c(c1-2)CN(C(=O)c1ccc(Cl)c(Cl)c1)CC3 [Compound 3, (3,4-dichlorophenyl)(3-ethyl-4,5,8,9-tetrahydro[1,2]oxazolo[3,4-c]pyrazolo[1,5-a:4,3-c′]dipyridin-10(11H)-yl)methanone] | 1440 | 47000
O=C(c1ccc(Cl)c(Cl)c1)N1CCc2nn3c(c2C1)-c1ncsc1CCC3 [Compound 46, (3,4-Dichlorophenyl)(4,5,6,9,10,12-hexahydro-11H-pyrido[4′,3′:3,4]pyrazolo[1,5-a][1,3]-thiazolo[4,5-c]azepin-11-yl)methanone] | 236 | 27100
O=C(c1ccc(Cl)c(Cl)c1)N1CCc2nn3c(c2C1)-c1n[nH]cc1CCC3 [Compound 41, (3,4-Dichlorophenyl)(2,5,6,9,10,12-hexahydropyrazolo[3,4-c]pyrido[4′,3′,3,4]pyrazolo[1,5-a]-azepin-11(4H)-yl)methanone] | 749 | 25600
Cc1[nH]nc2c1CCn1nc3c(c1-2)CN(C(=O)c1ccc(Cl)c(Cl)c1)CC3 [Compound 7, (3,4-Dichlorophenyl)(3-methyl-2,4,5,8,9,11-hexahydro-10H-pyrazolo[3,4-c]pyrazolo-[1,5-a:4,3-c′]dipyridin-10-yl)methanone] | 1290 | > 50000
O=C(c1ccc(Cl)c(Cl)c1)N1CCc2nn3c(c2C1)-c1n[nH]cc1CC(CO)C3 (stereo not drawn) [Compound 43, (3,4-Dichlorophenyl)[5-(hydroxymethyl)-2,5,6,9,10,12-hexahydropyrazolo[3,4-c]pyrido-[4′,3′:3,4]pyrazolo[1,5-a]azepin-11(41)-yl]methanone] | 2320 | > 50000
